Reference: ChEMBL document CHEMBL2010711, “Synthesis and comparative evaluation of 4-oxa- and 4-aza-podophyllotoxins as antiproliferative microtubule destabilizing agents” (Bioorg Med Chem Lett, 2012)
The source made the active and inactive calls.

Assays:
[1] = tested on: CCRF-CEM; test: Cytotoxicity against human CCRF-CEM cells after 48 hrs by trypan blue dye exclusion assay; type: functional
[2] = tested on: HL-60(TB); test: Cytotoxicity against human HL-60(TB) cells after 48 hrs by trypan blue dye exclusion assay; type: functional; settings: HL-60, 48 h
[3] = tested on: MOLT-4; test: Cytotoxicity against human MOLT4 cells after 48 hrs by trypan blue dye exclusion assay; type: functional; settings: MOLT-4, 48 h
[4] = tested on: RPMI-8226; test: Cytotoxicity against human RPMI8226 cells after 48 hrs by trypan blue dye exclusion assay; type: functional; settings: RPMI-8226, 48 h
[5] = tested on: SR; test: Cytotoxicity against human SR cells after 48 hrs by trypan blue dye exclusion assay; type: functional
[6] = tested on: A549; test: Cytotoxicity against human A549 cells after 48 hrs by trypan blue dye exclusion assay; type: functional; settings: A549, 48 h
[7] = tested on: EKVX; test: Cytotoxicity against human EKVX cells after 48 hrs by trypan blue dye exclusion assay; type: functional
[8] = tested on: HOP-92; test: Cytotoxicity against human HOP92 cells after 48 hrs by trypan blue dye exclusion assay; type: functional; settings: HOP-92, 48 h
[9] = tested on: NCI-H226; test: Cytotoxicity against human NCI-H226 cells after 48 hrs by trypan blue dye exclusion assay; type: functional; settings: NCI-H226, 48 h
[10] = tested on: NCI-H23; test: Cytotoxicity against human NCI-H23 cells after 48 hrs by trypan blue dye exclusion assay; type: functional; settings: NCI-H23, 48 h
[11] = tested on: NCI-H322M; test: Cytotoxicity against human NCI-H322M cells after 48 hrs by trypan blue dye exclusion assay; type: functional
[12] = tested on: NCI-H460; test: Cytotoxicity against human NCI-H460 cells after 48 hrs by trypan blue dye exclusion assay; type: functional; settings: NCI-H460, 48 h
[13] = tested on: NCI-H522; test: Cytotoxicity against human NCI-H522 cells after 48 hrs by trypan blue dye exclusion assay; type: functional; settings: NCI-H522, 48 h
[14] = tested on: COLO 205; test: Cytotoxicity against human COLO205 cells after 48 hrs by trypan blue dye exclusion assay; type: functional; settings: COLO 205, 48 h
[15] = tested on: HCC 2998; test: Cytotoxicity against human HCC2998 cells after 48 hrs by trypan blue dye exclusion assay; type: functional; settings: HCC 2998, 48 h
[16] = tested on: HCT-116; test: Cytotoxicity against human HCT116 cells after 48 hrs by trypan blue dye exclusion assay; type: functional; settings: HCT-116, 48 h
[17] = tested on: HCT-15; test: Cytotoxicity against human HCT15 cells after 48 hrs by trypan blue dye exclusion assay; type: functional; settings: HCT-15, 48 h
[18] = tested on: HT-29; test: Cytotoxicity against human HT-29 cells after 48 hrs by trypan blue dye exclusion assay; type: functional; settings: HT-29, 48 h
[19] = tested on: KM12; test: Cytotoxicity against human KM12 cells after 48 hrs by trypan blue dye exclusion assay; type: functional; settings: KM12, 48 h
[20] = tested on: SW-620; test: Cytotoxicity against human SW620 cells after 48 hrs by trypan blue dye exclusion assay; type: functional; settings: SW-620, 48 h
[21] = tested on: SF-268; test: Cytotoxicity against human SF268 cells after 48 hrs by trypan blue dye exclusion assay; type: functional; settings: SF-268, 48 h
[22] = tested on: SF-295; test: Cytotoxicity against human SF295 cells after 48 hrs by trypan blue dye exclusion assay; type: functional; settings: SF-295, 48 h
[23] = tested on: SF-539; test: Cytotoxicity against human SF539 cells after 48 hrs by trypan blue dye exclusion assay; type: functional; settings: SF-539, 48 h
[24] = tested on: SNB-19; test: Cytotoxicity against human SNB19 cells after 48 hrs by trypan blue dye exclusion assay; type: functional; settings: SNB-19, 48 h
[25] = tested on: SNB-75; test: Cytotoxicity against human SNB75 cells after 48 hrs by trypan blue dye exclusion assay; type: functional; settings: SNB-75, 48 h
[26] = tested on: U-251; test: Cytotoxicity against human U251 cells after 48 hrs by trypan blue dye exclusion assay; type: functional; settings: U-251, 48 h
[27] = tested on: LOX IMVI; test: Cytotoxicity against human LOXIMVI cells after 48 hrs by trypan blue dye exclusion assay; type: functional
[28] = tested on: Malme-3M; test: Cytotoxicity against human MALME-3M cells after 48 hrs by trypan blue dye exclusion assay; type: functional
[29] = tested on: M14; test: Cytotoxicity against human M14 cells after 48 hrs by trypan blue dye exclusion assay; type: functional; settings: M14, 48 h
[30] = tested on: MDA-MB-435; test: Cytotoxicity against human MDA-MB-435 cells after 48 hrs by trypan blue dye exclusion assay; type: functional; settings: MDA-MB-435, 48 h
[31] = tested on: SK-MEL-2; test: Cytotoxicity against human SK-MEL-2 cells after 48 hrs by trypan blue dye exclusion assay; type: functional; settings: SK-MEL-2, 48 h
[32] = tested on: SK-MEL-28; test: Cytotoxicity against human SK-MEL-28 cells after 48 hrs by trypan blue dye exclusion assay; type: functional; settings: SK-MEL-28, 48 h
[33] = tested on: SK-MEL-5; test: Cytotoxicity against human SK-MEL-5 cells after 48 hrs by trypan blue dye exclusion assay; type: functional; settings: SK-MEL-5, 48 h
[34] = tested on: UACC-257; test: Cytotoxicity against human UACC257 cells after 48 hrs by trypan blue dye exclusion assay; type: functional; settings: UACC-257, 48 h
[35] = tested on: UACC-62; test: Cytotoxicity against human UACC62 cells after 48 hrs by trypan blue dye exclusion assay; type: functional; settings: UACC-62, 48 h
[36] = tested on: IGROV-1; test: Cytotoxicity against human IGROV1 cells after 48 hrs by trypan blue dye exclusion assay; type: functional; settings: IGROV-1, 48 h
[37] = tested on: OVCAR-3; test: Cytotoxicity against human OVCAR3 cells after 48 hrs by trypan blue dye exclusion assay; type: functional; settings: OVCAR-3, 48 h
[38] = tested on: OVCAR-4; test: Cytotoxicity against human OVCAR4 cells after 48 hrs by trypan blue dye exclusion assay; type: functional; settings: OVCAR-4, 48 h
[39] = tested on: OVCAR-5; test: Cytotoxicity against human OVCAR5 cells after 48 hrs by trypan blue dye exclusion assay; type: functional; settings: OVCAR-5, 48 h
[40] = tested on: OVCAR-8; test: Cytotoxicity against human OVCAR8 cells after 48 hrs by trypan blue dye exclusion assay; type: functional; settings: OVCAR-8, 48 h
[41] = tested on: NCI/ADR-RES; test: Cytotoxicity against human NCI/ADR-RES cells after 48 hrs by trypan blue dye exclusion assay; type: functional
[42] = tested on: SK-OV-3; test: Cytotoxicity against human SKOV3 cells after 48 hrs by trypan blue dye exclusion assay; type: functional; settings: SK-OV-3, 48 h
[43] = tested on: 786-0; test: Cytotoxicity against human 786-0 cells after 48 hrs by trypan blue dye exclusion assay; type: functional; settings: 786-0, 48 h
[44] = tested on: A498; test: Cytotoxicity against human A498 cells after 48 hrs by trypan blue dye exclusion assay; type: functional; settings: A498, 48 h
[45] = tested on: ACHN; test: Cytotoxicity against human ACHN cells after 48 hrs by trypan blue dye exclusion assay; type: functional
[46] = tested on: CAKI-1; test: Cytotoxicity against human CAKI-1 cells after 48 hrs by trypan blue dye exclusion assay; type: functional; settings: CAKI-1, 48 h
[47] = tested on: RXF 393; test: Cytotoxicity against human RXF393 cells after 48 hrs by trypan blue dye exclusion assay; type: functional; settings: RXF 393, 48 h
[48] = tested on: SN12C; test: Cytotoxicity against human SN12C cells after 48 hrs by trypan blue dye exclusion assay; type: functional
[49] = tested on: TK-10; test: Cytotoxicity against human TK10 cells after 48 hrs by trypan blue dye exclusion assay; type: functional; settings: TK-10, 48 h
[50] = tested on: UO-31; test: Cytotoxicity against human UO31 cells after 48 hrs by trypan blue dye exclusion assay; type: functional; settings: UO-31, 48 h
[51] = tested on: PC-3; test: Cytotoxicity against human PC3 cells after 48 hrs by trypan blue dye exclusion assay; type: functional; settings: PC-3, 48 h
[52] = tested on: DU-145; test: Cytotoxicity against human DU145 cells after 48 hrs by trypan blue dye exclusion assay; type: functional; settings: DU-145, 48 h
[53] = tested on: MCF7; test: Cytotoxicity against human MCF7 cells after 48 hrs by trypan blue dye exclusion assay; type: functional; settings: MCF7, 48 h
[54] = tested on: MDA-MB-231; test: Cytotoxicity against human MDA-MB-231 cells after 48 hrs by trypan blue dye exclusion assay; type: functional; settings: MDA-MB-231, 48 h
[55] = Cytotoxicity against human Hs 578T cells after 48 hrs by trypan blue dye exclusion assay; type: functional
[56] = tested on: BT-549; test: Cytotoxicity against human BT549 cells after 48 hrs by trypan blue dye exclusion assay; type: functional; settings: BT-549, 48 h
[57] = tested on: T47D; test: Cytotoxicity against human T47D cells after 48 hrs by trypan blue dye exclusion assay; type: functional
[58] = tested on: MDA-MB-468; test: Cytotoxicity against human MDA-MB-468 cells after 48 hrs by trypan blue dye exclusion assay; type: functional; settings: MDA-MB-468, 48 h
[59] = tested on: Paracentrotus lividus; test: Antimitotic activity against Paracentrotus lividus embryo assessed as cleavage alteration at 2 fold less effective threshold concentration after 2.5 to 6 hrs; type: functional, organism-based
[60] = tested on: Paracentrotus lividus; test: Antimitotic activity against Paracentrotus lividus embryo assessed as cleavage arrest at 2 fold less effective threshold concentration after 2.5 to 6 hrs; type: functional, organism-based
[61] = tested on: Paracentrotus lividus; test: Microtubule destabilizing activity in Paracentrotus lividus embryo assessed as embryo spinning at 2 fold less effective threshold concentration after 15 mins to 20 hrs; type: functional, organism-based

Work on `COc1ccc2c(c1)C(c1cc(OC)c3c(c1)OCO3)C1=C(COC1=O)N2` (stereo unspecified) yielded a GI50 [1] of 424 nM, a GI50 [2] of 287 nM and a GI50 [3] of 569 nM. The GI50 [4] was 494 nM, the GI50 [5] was 324 nM and the GI50 [6] was 491 nM. For the same compound, the GI50 [7] was 982 nM, the GI50 [8] was 425 nM and the GI50 [9] was 23300 nM. It also gave a GI50 [10] of 317 nM, a GI50 [11] of 283 nM and a GI50 [12] of 19200 nM. The GI50 [13] was 348 nM, the GI50 [14] was 268 nM and the GI50 [15] was 568 nM. It also gave a GI50 [16] of 457 nM, a GI50 [17] of 485 nM and a GI50 [18] of 326 nM. For the same compound, the GI50 [19] was 254 nM, the GI50 [20] was 377 nM and the GI50 [21] was 805 nM. It also gave a GI50 [22] of 82.5 nM, a GI50 [23] of 359 nM and a GI50 [24] of 518 nM. For the same compound, the GI50 [25] was 48.7 nM, the GI50 [26] was 805 nM and the GI50 [27] was 702 nM. It also gave a GI50 [28] greater than 100000 nM, a GI50 [29] of 247 nM and a GI50 [30] of 49 nM. For the same compound, the GI50 [31] was 429 nM, the GI50 [32] was 206 nM and the GI50 [33] was 269 nM. It also gave a GI50 [34] greater than 100000 nM, a GI50 [35] of 88.1 nM and a GI50 [36] of 679 nM. The GI50 [37] was 234 nM, the GI50 [38] was 762 nM and the GI50 [39] was 629 nM. It also gave a GI50 [40] of 595 nM, a GI50 [41] of 289 nM and a GI50 [42] of 318 nM. The GI50 [43] was 594 nM, the GI50 [44] was 138 nM and the GI50 [45] was 1570 nM. The GI50 [46] was 709 nM, the GI50 [47] was 130 nM and the GI50 [48] was 622 nM. For the same compound, the GI50 [49] was greater than 100000 nM, the GI50 [50] was 33100 nM and the GI50 [51] was 358 nM. The GI50 [52] was 399 nM, the GI50 [53] was 254 nM and the GI50 [54] was 698 nM. For the same compound, the GI50 [55] was 199 nM, the GI50 [56] was 1190 nM and the GI50 [57] was 50500 nM. For the same compound, the GI50 [58] was 230 nM, the Activity [59] was “inactive” and the Activity [60] was “inactive”. The Activity [61] was “inactive”.
